Measurements taken from ChEMBL document CHEMBL1149820, “Synthesis, properties and photodynamic inactivation of Escherichia coli by novel cationic fullerene C60 derivatives” (2008).

How the values were obtained:
Type in all cases: functional
Escherichia coli [1] = assay: Photoinactivation of Escherichia coli EC7 at 1 uM after 5 mins of irradiation
Escherichia coli [2] = assay: Photoinactivation of Escherichia coli EC7 assessed as log reduction of cell survival at 5 uM after 30 mins of irradiation
Escherichia coli [3] = assay: Photoinactivation of Escherichia coli EC7 at 1 uM after 20 mins of irradiation

| Structure (SMILES) | Activity (Escherichia coli [1]) | Survival (Escherichia coli [2]) | Activity (Escherichia coli [3]) |
| --- | --- | --- | --- |
| Cc1ccc(-c2c3nc(c(-c4ccc([N+](C)(C)C)cc4)c4ccc([nH]4)c(-c4ccc([N+](C)(C)C)cc4)c4nc(c(-c5ccc(C)cc5)c5ccc2[nH]5)C=C4)C=C3)cc1.[I-].[I-] | 70% | 3.2 | – |
| C[N+](C)(C)CCCOc1ccc(-c2c3nc(c(-c4ccc(C(F)(F)F)cc4)c4ccc([nH]4)c(-c4ccc(OCCC[N+](C)(C)C)cc4)c4nc(c(-c5ccc(C(F)(F)F)cc5)c5ccc2[nH]5)C=C4)C=C3)cc1.[I-].[I-] | – | – | 87% |
